The source made the active and inactive calls. No cut-off for these calls is given here.
Columns and labels:
[1] = test system: HCT-116; test: Antiproliferative activity against human HCT-116 cells assessed as reduction in cell viability incubated for 24 to 48 hrs by CCK-8 assay; assay type: functional, cell-based
[2] = test system: HCT-116; test: Antiproliferative activity against human HCT-116 cells expressing PIK3CA with H1047R mutation assessed as reduction in cell viability incubated for 24 to 48 hrs by CCK-8 assay; assay type: functional, cell-based
[3] = Metabolic stability in Sprague-Dawley rat liver microsomes assessed as compound remaining at 5 ug/ml incubated for 1 hr in presence of NADPH by LC-MS/MS analysis; assay type: ADME, Microsome; settings: at 5 µg/mL, read-out: Stability
[4] = target: T1, Phosphatidylinositol 4,5-bisphosphate 3-kinase catalytic subunit delta isoform (Homo sapiens, UniProt O00329); test: Inhibition of PI3Kdelta (unknown origin) by ADP-Glo luminescent kinase assay
T1 sequence (O00329 whole entry): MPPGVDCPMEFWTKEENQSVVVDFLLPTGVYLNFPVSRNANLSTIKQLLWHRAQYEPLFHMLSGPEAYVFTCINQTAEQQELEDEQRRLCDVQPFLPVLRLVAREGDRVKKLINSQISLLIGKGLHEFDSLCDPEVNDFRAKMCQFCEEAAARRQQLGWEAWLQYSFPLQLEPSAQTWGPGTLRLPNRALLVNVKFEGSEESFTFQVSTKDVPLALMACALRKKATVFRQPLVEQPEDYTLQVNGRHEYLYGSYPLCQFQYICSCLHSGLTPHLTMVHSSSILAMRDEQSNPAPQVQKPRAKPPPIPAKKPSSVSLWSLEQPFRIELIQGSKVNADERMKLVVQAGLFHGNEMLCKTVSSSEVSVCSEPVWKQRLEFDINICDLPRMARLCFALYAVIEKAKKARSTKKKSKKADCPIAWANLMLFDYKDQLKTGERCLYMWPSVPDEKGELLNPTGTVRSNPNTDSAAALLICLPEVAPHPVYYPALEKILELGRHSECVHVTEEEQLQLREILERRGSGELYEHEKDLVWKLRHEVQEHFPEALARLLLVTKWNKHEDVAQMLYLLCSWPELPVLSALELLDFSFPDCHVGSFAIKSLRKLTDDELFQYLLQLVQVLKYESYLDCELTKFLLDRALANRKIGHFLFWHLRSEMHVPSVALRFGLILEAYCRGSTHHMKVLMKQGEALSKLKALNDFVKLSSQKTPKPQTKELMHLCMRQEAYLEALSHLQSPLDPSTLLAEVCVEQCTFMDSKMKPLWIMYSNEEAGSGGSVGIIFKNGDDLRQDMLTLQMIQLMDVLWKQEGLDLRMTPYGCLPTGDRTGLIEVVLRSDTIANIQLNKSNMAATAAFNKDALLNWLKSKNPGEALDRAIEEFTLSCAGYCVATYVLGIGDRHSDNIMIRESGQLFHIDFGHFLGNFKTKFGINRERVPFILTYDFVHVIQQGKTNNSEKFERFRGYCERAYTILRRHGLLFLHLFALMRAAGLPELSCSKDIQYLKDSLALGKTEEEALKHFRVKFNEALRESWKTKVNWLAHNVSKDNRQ

[5] = AUC (0 to infinity) in Sprague-Dawley rat at 5 mg/kg, iv measured upto 24 hrs by LC-MS analysis; assay type: ADME, organism-based; settings: in vivo
[6] = test system: CAL-62; test: Antiproliferative activity against human CAL-62 cells assessed as reduction in cell viability at 10 uM incubated for 24 to 48 hrs by CCK-8 assay; assay type: functional, cell-based; settings: time lower […], time upper 48.0 hrs
[7] = test system: MDA-MB-231; test: Antiproliferative activity against human MDA-MB-231 cells assessed as reduction in cell viability incubated for 24 to 48 hrs by CCK-8 assay; assay type: functional, cell-based
[8] = test system: HEK-293T; test: Cytotoxicity against human HEK293T cells assessed as reduction in cell viability at 10 uM incubated for 24 to 48 hrs by CCK-8 assay; assay type: toxicity, cell-based; settings: time 24-48 hrs
[9] = Cytotoxicity against human NCM460 cells assessed as reduction in cell viability incubated for 24 to 48 hrs by CCK-8 assay; assay type: toxicity, cell-based
[10] = target: Cytochrome P450 2D6 (Homo sapiens, UniProt P10635); test: Inhibition of CYP2D6 in human liver microsomes using dextromethorphan as substrate pre-incubated for 30 mins followed by substrate addition and measured after 15 mins in presence of NADPH by LC/MS analysis; assay type: ADME, Microsome
[11] = test system: HCT-116; test: Inhibition of cell migration human HCT-116 cells incubated for 48 hrs by crystal violet staining based transwell assay; assay type: functional; settings: dose 3-12 µM
[12] = MRT (0 to infinity) in Sprague-Dawley rat at 5 mg/kg, iv measured upto 24 hrs by LC-MS analysis; assay type: ADME, organism-based; settings: in vivo
[13] = test system: MCF7; test: Antiproliferative activity against human MCF7 cells expressing PIK3CA with E545K mutation assessed as reduction in cell viability incubated for 24 to 48 hrs by CCK-8 assay; assay type: functional, cell-based
[14] = test system: MCF7; test: Antiproliferative activity against human MCF7 cells assessed as reduction in cell viability incubated for 24 to 48 hrs by CCK-8 assay; assay type: functional, cell-based
[15] = test system: HCT-116; test: Antiproliferative activity against human HCT-116 cells assessed as inhibition of Akt phosphorylation incubated for 48 hrs by Western blotting analysis; assay type: functional, cell-based; settings: dose 3-12 µM
[16] = Metabolic stability in Sprague-Dawley rat liver microsomes assessed as intrinsic clearance at 5 ug/ml incubated for 1 hr in presence of NADPH by LC-MS/MS analysis; assay type: ADME, Microsome; settings: dose 5 µg/ml
[17] = Cytotoxicity against human MCF-10A cells assessed as reduction in cell viability incubated for 24 to 48 hrs by CCK-8 assay; assay type: toxicity, cell-based
[18] = target: Serine/threonine-protein kinase 17A (Homo sapiens) (UniProt Q9UEE5); test: Inhibition of human DRAK1 at 1 uM
[19] = test system: K562; test: Antiproliferative activity against human K562 cells assessed as reduction in cell viability at 10 uM incubated for 24 to 48 hrs by CCK-8 assay; assay type: functional, cell-based; settings: time lower […], time upper 48.0 hrs
[20] = test system: HCT-116; test: Induction of apoptosis in human HCT-116 cells assessed as increased total apoptotic cells at 6 uM incubated for 48 hrs by Annexin V-FITC and propidium iodide staining based flow cytometry analysis (reference value: 4.22 %); assay type: functional
[21] = test system: HCT-116; test: Antiproliferative activity against human HCT-116 cells assessed as inhibition of PI3K phosphorylation incubated for 48 hrs by Western blotting analysis; assay type: functional, cell-based; settings: dose 3-12 µM
[22] = Half life in Sprague-Dawley rat at 5 mg/kg, iv measured upto 24 hrs by LC-MS analysis; assay type: ADME, organism-based; settings: in vivo
[23] = AUC (0 to t) in Sprague-Dawley rat at 5 mg/kg, iv measured upto 24 hrs by LC-MS analysis; assay type: ADME, organism-based; settings: in vivo
[24] = test system: SF-126; test: Antiproliferative activity against human SF-126 cells assessed as reduction in cell viability at 10 uM incubated for 24 to 48 hrs by CCK-8 assay; assay type: functional, cell-based; settings: time lower […], time upper 48.0 hrs
[25] = Metabolic stability in Sprague-Dawley rat liver microsomes assessed as half life at 5 ug/ml incubated for 1 hr in presence of NADPH by LC-MS/MS analysis; assay type: ADME, Microsome; settings: dose 5 µg/ml
[26] = Volume of distribution in Sprague-Dawley rat at 5 mg/kg, iv measured upto 24 hrs by LC-MS analysis; assay type: ADME, organism-based; settings: in vivo
[27] = test system: HeLa; test: Antiproliferative activity against human HeLa cells assessed as reduction in cell viability at 10 uM incubated for 24 to 48 hrs by CCK-8 assay; assay type: functional, cell-based; settings: time lower […], time upper 48.0 hrs

Sequence of Serine/threonine-protein kinase 17A (Homo sapiens) (Q9UEE5 whole entry): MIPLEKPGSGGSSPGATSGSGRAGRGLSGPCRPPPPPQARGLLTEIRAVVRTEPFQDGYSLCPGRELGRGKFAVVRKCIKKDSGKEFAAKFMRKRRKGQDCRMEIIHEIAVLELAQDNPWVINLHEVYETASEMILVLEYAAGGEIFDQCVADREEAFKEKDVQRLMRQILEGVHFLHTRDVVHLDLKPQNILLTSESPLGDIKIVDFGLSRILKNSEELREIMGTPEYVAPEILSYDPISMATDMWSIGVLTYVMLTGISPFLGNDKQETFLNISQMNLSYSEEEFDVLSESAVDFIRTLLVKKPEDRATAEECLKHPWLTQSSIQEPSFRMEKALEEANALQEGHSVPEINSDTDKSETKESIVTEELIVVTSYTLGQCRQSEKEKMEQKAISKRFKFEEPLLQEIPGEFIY
Sequence of Cytochrome P450 2D6 (P10635 whole entry): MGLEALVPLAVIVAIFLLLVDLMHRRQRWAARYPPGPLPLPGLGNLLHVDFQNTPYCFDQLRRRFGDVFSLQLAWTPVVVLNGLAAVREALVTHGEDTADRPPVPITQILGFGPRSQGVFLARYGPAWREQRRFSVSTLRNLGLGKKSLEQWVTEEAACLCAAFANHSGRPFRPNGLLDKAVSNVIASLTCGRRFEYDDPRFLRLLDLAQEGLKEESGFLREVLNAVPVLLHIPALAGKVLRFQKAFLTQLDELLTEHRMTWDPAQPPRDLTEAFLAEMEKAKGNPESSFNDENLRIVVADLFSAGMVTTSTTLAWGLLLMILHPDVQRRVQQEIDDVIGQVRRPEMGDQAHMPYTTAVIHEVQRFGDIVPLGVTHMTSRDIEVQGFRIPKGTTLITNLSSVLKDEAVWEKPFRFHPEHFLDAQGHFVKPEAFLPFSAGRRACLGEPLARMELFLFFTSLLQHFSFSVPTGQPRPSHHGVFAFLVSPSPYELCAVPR

- IC50 [1]: 3.79 µM
- IC50 [2]: 7.24 µM
- remaining at 1 h, 5 ug/ml [3]: 82.3%
- IC50 [4]: 0.111 µM
- AUC(0-inf) [5]: 8250 ng·h/mL
- IC50 [7]: 13.7 µM
- IC50 [10]: > 10 µM
- MRT inf [12]: 1.8 h
- IC50 [13]: 3.32 µM
- IC50 [14]: 0.75 µM
- CLH [16]: 6 µL/min/mg
- inhibition [18]: Active
- half-life [22]: 5.8 h
- AUC(0-t) at 24 h [23]: 8230 ng·h/mL
- half-life at 5 ug/ml [25]: 3.61 h
- Vd [26]: 5.2 L/kg
Structure (SMILES): Nc1nc2cc(-c3ccc4ncc(N5C[C@@H]6OCCO[C@@H]6C5)nc4c3)ccc2o1
- Activity [6]: Active
- Activity [8]: Toxic
- IC50 [9]: 49.7 µM
- inhibition [11]: Dose-Dependent Effect
- Activity [15]: Dose-Dependent Effect
- IC50 [17]: 54 µM
- Activity [19]: Active
- Activity [20]: 12.31%
- Activity [21]: Dose-Dependent Effect
- Activity [24]: Active
- Activity [27]: Active
